Tests used:
his-tagged FABP3 = target: T1, his-tagged FABP3 (Homo sapiens, UniProt P05413); experiment: Selectivity binding assay with FABP immobilized on Ni-NTA magnetic agarose beads; settings: immobilized FABP3, 2 hr, room temperature
T1 construct: purchased Cayman Chemical Company
Experimental: (§1) For the selectivity binding assay, his-tagged FABP3 (0.75 mg/ml), FABP4 (0.75 mg/ml) and FABP5 (0.70 mg/ml) in 50 mM phosphate buffer containing 100 mM NaCl (20% glycerol, v/v, pH = 7.2) were used. Immobilization was performed following the manufacturer's procedures. Each solution of his-tagged FABP3 ([…], 1.5 µg), FABP4 (0.002 ml, 1.5 µg) or FABP5 (0.002 ml, 1.4 µg) was incubated with 0.02 ml Ni-NTA Magnetic Agarose Beads (Qiagen) and 0.5 ml protein binding buffer (50 mM NaH2PO4, 300 mM NaCl, 10 mM imidazole, pH = 8.0) at room temperature for 1 hr. After supernatant removal, protein binding buffer with 1% BSA was added, and the mixture was incubated at room temperature for 30 min. After removal of the supernatant, 0.4 ml of interaction buffer (50 mM NaH2PO4, 300 mM NaCl, 10 mM imidazole, and 0.005% Tween, v/v, pH = 8.0) and 0.05 ml [^125I]TAP1 (0.01 MBq) in interaction buffer (5% ethanol, v/v) were added. For measurement of non-specific binding, 0.05 ml of nonradioactive TAP1 in interaction buffer (5% ethanol, v/v, 11.3 µM) was added with the [^125I]TAP1. After incubation at room temperature for 2 hr, the supernatants were removed, and the beads washed with interaction buffer (5% ethanol, v/v). The radioactivity of beads in the tubes was measured with a well-type γ-counter (1480 Wizard3, PerkinElmer Japan Co., Osaka, Japan). Binding ratios were calculated as (radioactivity of beads)/(total applied radioactivity)/(protein abundance on beads)×100 (%Dose/µg protein).

his-tagged FABP4 = target: T2, his-tagged FABP4 (Homo sapiens, UniProt P15090); experiment: as above
T2 construct: purchased Cayman Chemical Company
Experimental: as §1

his-tagged FABP5 = target: T3, his-tagged FABP5 (Homo sapiens, UniProt Q01469); experiment: as above; settings: immobilized FABP5, 2 hr, room temperature
T3 construct: purchased Cayman Chemical Company
Experimental: as §1

FABP4 = target: T4, FABP4 (Homo sapiens, UniProt P15090); experiment: Saturation binding assay, Scatchard analysis; settings: immobilized FABP4
T4 construct: purchased Cayman Chemical Company
Experimental: For the saturation assay, a mixture solution of [^125I]TAP1 (0.3–9.5 MBq) was prepared by mixing nonradioactive TAP1 (0.0125–0.4 µM) in interaction buffer (2.5% ethanol and 5% DMSO, v/v). Nonspecific binding was defined in the presence of 0.09 mg/ml [^125I]TAP1 including nonradioactive TAP1. After FABP4 immobilization as described above, 0.4 ml interaction buffer and 0.05 ml mixture solution were added, and the mixture was incubated at room temperature for 2 hr. After incubation, the supernatants were removed and the beads were washed with interaction buffer (5% ethanol, v/v). The radioactivity of beads in the tubes was then measured with a well-type γ-counter. The dissociation constant (K d) of [^125I]TAP1 for FABP4 was determined by Scatchard analysis using GraphPad Prism.

[1] = system: 3T3-L1 preadipocytes and differentiated adipocytes; experiment: Cell uptake study in adipocytes and preadipocytes; type: cell-based, Murine; settings: 37 °C, 1 hr
Experimental: Murine 3T3-L1 preadipocytes were obtained from ATCC and cultured in Dulbecco's Modified Eagle Medium (Nissui Pharmaceutical Co., Ltd.) supplemented with 10% heat-inactivated fetal bovine serum, 50 U/ml penicillin and 50 μg/ml streptomycin at 37 °C in 5% CO2. For cell uptake assay, differentiation of 3T3-L1 cells was performed as described previously. Briefly, two days after confluence, the medium was replaced with DMEM containing 10% FBS and inducers ([…], 10 μg/ml insulin, 0.5 mM 3-isobutyl-1-methylxanthine and 10 μM pioglitazone hydrochloride) for 2 days. The medium was then changed to DMEM supplemented with 10% FBS, 10 μg/ml insulin and 10 μM pioglitazone hydrochloride, and then incubated for 2 days. Then, the medium was changed to DMEM supplemented with 10% FBS and 10 μM pioglitazone hydrochloride every other day. After 8-10 days, the differentiated adipocytes were used for experiments.
For the cell uptake study using adipocytes, the medium of 24-well plate, in which the differentiated adipocytes or undifferentiated 3T3-L1 cells are cultured, was removed. […] Following the measurement of the radioactivity of collected cell lysate with a well-type γ-counter, protein determination was performed. […] Binding ratios were calculated as (radioactivity in collected cells)/(total applied radioactivity)/(protein abundance) x 100 (%Dose/mg protein).

[2] = Partition coefficient, 1-octanol/phosphate buffer pH 7.4; type: physicochemical; settings: 1-octanol/phosphate buffer (PBS(-))
Experimental: Experimental determination of the [^125I]TAP1 partition coefficient was performed with 1-octanol and phosphate buffer at pH 7.4. The two phases were pre-saturated, and a mixture solution of 3.0 ml 1-octanol and 3.0 ml PBS (-) was added to a tube containing 0.02 ml [^125I]TAP1 in PBS (-) (0.024 MBq, 5% ethanol, v/v). The test tube was vortexed and centrifuged (1,000×g, 5 min). Aliquots from the 1-octanol and buffer phases (0.5 ml) were counted with a well-type γ-counter. This procedure was repeated three times. The partition coefficient was calculated from the ratio of radioactivity in the organic and aqueous layers.

[3] = In vitro stability in saline and plasma (RP-HPLC); type: in vitro ADME, ddY mice; settings: 2 hr, 37 °C
Experimental: The in vitro stability of [^125I]TAP1 in plasma was measured using plasma samples taken from ddY mice (males, 7 weeks old). [^125I]TAP1 (0.07 MBq, 0.01 ml) was incubated with 0.1 ml plasma at 37 °C for 2 hr. After addition of 0.2 ml methanol and vortexing, the mixture was centrifuged (4,160×g, 10 min). The supernatant was filtered with a low protein binding hydrophilic PTFE membrane (Millex-LH MILLIPORE), and the filtrate was analyzed by RP-HPLC using a Cosmosil C18 column with an isocratic solvent of H2O (0.1% TFA, v/v)/acetonitrile (0.1% TFA, v/v) (37/63) at a flow rate of 1.5 ml/min.

T2 sequence (P15090 whole entry): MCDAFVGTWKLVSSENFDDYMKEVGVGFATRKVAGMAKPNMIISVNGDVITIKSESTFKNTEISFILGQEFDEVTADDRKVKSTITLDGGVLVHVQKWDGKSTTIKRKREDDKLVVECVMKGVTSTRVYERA
T3 sequence (Q01469 whole entry): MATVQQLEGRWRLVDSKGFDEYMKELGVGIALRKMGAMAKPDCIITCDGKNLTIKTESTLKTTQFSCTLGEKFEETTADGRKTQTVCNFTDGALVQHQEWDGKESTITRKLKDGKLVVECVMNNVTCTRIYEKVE
T1 sequence (P05413 whole entry): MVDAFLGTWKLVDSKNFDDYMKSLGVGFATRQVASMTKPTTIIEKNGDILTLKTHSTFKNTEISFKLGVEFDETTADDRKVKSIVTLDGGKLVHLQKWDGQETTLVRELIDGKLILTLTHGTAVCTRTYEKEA
T4 sequence (P15090 whole entry): as the sequence (P15090 whole entry) above

binding to FABP3 (his-tagged FABP3): 1.4±0.5 % dose/µg protein | FABP4 binding relative to FABP3 (his-tagged FABP4; FABP4 over FABP3): 11.5 fold | FABP4 binding relative to FABP5 (his-tagged FABP4; FABP4 over FABP5): 33.2 fold | binding to FABP4 (his-tagged FABP4; immobilized FABP4, 2 hr, room temperature): 16.3±3.4 % dose/µg protein | binding to FABP5 (his-tagged FABP5): 0.5±0.3 % dose/µg protein | Kd (FABP4): 69.1 ± 12.3 nM | logP [2]: 2.7 ± 0.1
SMILES: O=c1cc(COc2cccc([125I])c2)[nH]c2nc(-c3ccccc3)nn12 [[^125I]TAP1]
uptake into adipocytes (FABP4 positive) vs 3T3-L1 preadipocytes (FABP4 negative) [1]: significantly higher | stability in mouse plasma ([3]; mouse plasma): no radioactive degradation products were observed | stability in saline ([3]; saline): no radioactive degradation products were observed

Source: article PMC3986099, “Development of a Radioiodinated Triazolopyrimidine Probe for Nuclear Medical Imaging of Fatty Acid Binding Protein 4” (PLoS ONE, 2014)
